# Results reported in US20230357189A1, “MODIFIED FLUOROQUINOLONES AND USES THEREOF” (Technion Research & Development Foundation Limited, priority 2021, published 2023).
# Tests used:
# [1] = system: Gram-negative and Gram-positive bacteria; assay: Comparative antibacterial activity, all tested bacteria; type: cell-based; details: for antibacterial activity (in words): MIC, Table 2 and 3
# Protocol: Comparative antibacterial activities were determined by measuring the MIC values by using the double-microdilution method according to the National Committee for Clinical Laboratory Standards (NCCLS). The Luria-Bertani growth medium and polypropylene 96-well plates (Thermo) were used unless otherwise stated. All the experiments were performed in triplicate, and analogous results were obtained in three different experiments.
# Compounds 1-6 and their Cu(II) and Co(III) complexes, as well as the pendant-bearing compounds 19-23 and 26 were tested for their comparative antibacterial activity by determining MIC values against two Gram-negative E. coli strains (AR477-100 and 25922) and two Gram-positive strains, Staphylococcus Epidermidis, and Bacillus Subtilis.
# [2] = system: Escherichia coli 25922; assay: Antibacterial activity, MIC by double-microdilution method; type: cell-based; details: Table 2, Escherichia coli 25922; for MIC: read-out: Gram-negative MIC b
# [3] = system: Escherichia coli R477-100; assay: as above; type: cell-based; details: Escherichia coli R477-100; for Gram-negative MIC a / MIC: Table 2, without DTT; for MIC: R477100, read-out: Gram-negative MIC a
# [4] = system: Staphylococcus Epidermidis; assay: as above; type: cell-based; details: for Gram-positive MIC c: Table 2; for MIC: Table 2, read-out: Gram-positive MIC c
# [5] = system: Bacillus Subtilis; assay: as above; type: cell-based; details: Bacillus Subtilis; for Gram-positive MIC d / MIC: Table 2; for MIC: read-out: Gram-positive MIC d
# [6] = system: supercoiled (+) pHOT-1 plasmid DNA; assay: DNA cleavage assay (gel electrophoresis); type: biochemical; details: for DNase activity (cleavage of supercoiled plasmid, form I to form II): HEPES buffer (50 mM, pH 7.4)
# Protocol: Removal of Ligands Prior to Electrophoresis was performed when more than 100 μM of Cu(II)-ligand or Co(III) ligand (at any concentration) complexes were employed that is, for DNA cleavage assays that were performed in the absence of any adjuvants. An Amberlyst® 15 (Sigma Aldrich) ion-exchange resin was prepared according to the reported literature [Hettich et al. J. Am. Chem. Soc. 1997, 119 (24), 5638-5647] and stored at −20° C. Before use, 0.5 gram of the exchanger was mixed with 250 μL of water. After stopping the DNA-cleavage reaction by addition of EDTA (54 mM, 15 minutes incubation at 37° C.), 10 μL of the exchanger suspension was added, vortexed, and incubated at 37° C. for 15 minutes before centrifugation and electrophoresis.
# DNA cleavage activity of the tested Complexes towards supercoiled (+) pHOT-1 plasmid DNA (TopoGEN) was monitored by gel electrophoresis. In a typical experiment, plasmid DNA (200 ng, […]) in HEPES buffer (50 mM, pH 7.4) was mixed with different concentrations of a tested metal complex in the presence or absence of ascorbic acid (0.32 mM). All stock solutions of buffers and of the metal complexes were prepared using HPLC grade water (ChromAR®). Molecular biology reagent grade water (Sigma) was added up to a total reaction volume of 30 μL before incubation for a given time. For the ascorbic acid assays, the reaction was quenched immediately after incubation with EDTA (54 mM). For analysis, 10 μL of loading buffer (40% sucrose, 100 mM Tris-HCl (pH 7.5), 1 mM EDTA, 0.5 mg·mL^−1 bromophenol blue) was added to the incubated solution and loaded onto an agarose (SeaKem LE) gel [1% in TAE×1 buffer (40 mM Tris, 20 mM acetic acid, 1 mM EDTA)]. Electrophoresis was carried out at 60 V for 2 hours. Gels were stained with 1 μg·mL^−1 ethidium bromide for 30 minutes and de-stained in TAE×1 buffer. DNA bands were visualized with medium-range ultraviolet light using Bio-Rad Gel Doc XR+ imaging system. The quantity of different DNA forms (I or II) was estimated using ImageJ software.
# Chem. 2015, 2015 (28), 4722-4730; Kashiba-Iwatsuki et al. FEBS Lett. 1996, 389 (2), 149-15].
# The copper complex of compound 2 (2-Cu(II)) was used as the positive control in these assays.
# [7] = system: supercoiled (+) pHOT-1 plasmid DNA; assay: DNA cleavage assay (gel electrophoresis); type: biochemical
# [8] = target: T1, E. coli DNA gyrase (Escherichia coli, UniProt P0AES4+P0AES6); assay: E. coli Gyrase-DNA supercoiling assay; type: biochemical; details: supercoiling of relaxed pHOT-1 plasmid in presence of ATP; 37° C., 60 minutes
# T1 construct: purchased TopoGEN
# Protocol: The DNA supercoiling reactions were based on the manufacturer protocol (TopoGEN). The amount of DNA gyrase used in each assay was optimized by testing various dilutions of the stock. The amount sufficient to supercoil 250 nanograms (ng) of the substrate in 1 hour at 37° C. was then used for testing the compounds (1.1 U as defined by manufacturer). Assays (30 μL) contained 250 nanograms of relaxed pHOT1 plasmid DNA in Tris-HCl buffer (35 mM), pH 7.5, containing KCl (24 mM), MgCl2 (4 mM), DTT (2 mM), Spermidine (1.8 mM), ATP (1 mM), 6.5% (w/v) glycerol and bovine serum albumin (0.1 mg/ml). Reactions were incubated at 37° C. for 60 minutes. Reaction mixtures were stopped by the addition of 30 μL of loading buffer (40% sucrose, 100 mM Tris·HCl (pH 7.5), 1 mM EDTA, 0.5 mg×mL^−1 bromophenol blue) and worked up using 30 μL of 24:1 chloroform/isoamyl alcohol mixture; the aqueous layer was then analyzed using electrophoresis.
# Electrophoresis, gel staining, DNA visualization and DNA quantification were performed as described for the DNA cleavage assays.
# T1 sequence (P0AES4 whole entry, one chain of several): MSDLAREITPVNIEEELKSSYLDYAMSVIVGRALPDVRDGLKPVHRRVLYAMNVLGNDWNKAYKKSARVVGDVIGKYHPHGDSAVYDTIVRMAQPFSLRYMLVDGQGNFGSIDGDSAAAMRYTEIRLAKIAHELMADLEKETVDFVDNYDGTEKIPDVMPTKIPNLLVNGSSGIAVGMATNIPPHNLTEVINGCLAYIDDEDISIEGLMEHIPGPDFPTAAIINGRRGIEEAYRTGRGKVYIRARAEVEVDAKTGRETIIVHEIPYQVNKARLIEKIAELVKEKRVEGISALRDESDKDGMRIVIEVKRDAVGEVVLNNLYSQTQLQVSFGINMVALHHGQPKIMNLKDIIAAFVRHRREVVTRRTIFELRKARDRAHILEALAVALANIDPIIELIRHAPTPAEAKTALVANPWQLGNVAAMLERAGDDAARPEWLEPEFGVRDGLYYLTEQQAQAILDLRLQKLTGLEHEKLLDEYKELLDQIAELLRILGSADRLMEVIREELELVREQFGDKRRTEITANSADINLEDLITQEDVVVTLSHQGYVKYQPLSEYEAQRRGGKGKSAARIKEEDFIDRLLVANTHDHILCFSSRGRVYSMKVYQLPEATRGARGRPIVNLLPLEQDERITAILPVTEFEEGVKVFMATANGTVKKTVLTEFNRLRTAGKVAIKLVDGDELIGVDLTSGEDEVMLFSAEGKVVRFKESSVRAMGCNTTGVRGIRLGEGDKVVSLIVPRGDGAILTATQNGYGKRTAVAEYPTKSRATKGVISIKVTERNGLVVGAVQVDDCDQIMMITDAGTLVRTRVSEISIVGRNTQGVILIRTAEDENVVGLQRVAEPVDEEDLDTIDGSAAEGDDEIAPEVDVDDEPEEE
SMILES,antibacterial activity (in words) [1],Gram-negative MIC b [2] [µg/mL],Gram-negative MIC a [3] [µg/mL],Gram-positive MIC c [4] [µg/mL],Gram-positive MIC d [5] [µg/mL],"DNase activity (cleavage of supercoiled plasmid, form I to form II) ([6]; absence of adjuvants, 5 hours)",IC50 [8] [nM],MIC [2] [µg/mL],MIC [3] [µg/mL],MIC [4] [µg/mL],MIC [5] [µg/mL],further results
N=C(N)NCCN1CCNCCNCCN(CCCCc2ccc(CN3CCN(c4cc5c(cc4F)c(=O)c(C(=O)O)cn5C4CC4)CC3)cc2)CC1 [Compound 22],slightly higher activity,3,3,6,1.5,significant DNase activity,,,,,,"better antibacterial activity compared to all the other pendant-bearing metal-free ligands ([1]; Table 2 MIC): 4-8 fold; Gram-negative MIC, DTT 10 mM ([3]; DTT 10 mM): 3 µg/mL; Gram-negative MIC, DTT 0 mM ([3]; Table 3, DTT 0 mM): 3 µg/mL; Gram-negative MIC, DTT 2 mM ([3]; Table 3, DTT 2 mM): 3 µg/mL; Gram-positive MIC, DTT 0 mM ([5]; Table 3, DTT 0 mM): 1.5 µg/mL; Gram-positive MIC, DTT 2 mM ([5]; Table 3, DTT 2 mM): 1.5 µg/mL; Gram-positive MIC, DTT 10 mM ([5]; Table 3, DTT 10 mM): 1.5 µg/mL"
"C1CNCCNCCNCCN1.O.[Co+3].[OH-] [Co(III)-cyclen, reference compound]",,,,,,,,,,,,"DNase activity in TRIS buffer with ATP ([7]; 50 mM TRIS buffer, 1.8 mM ATP): not inhibited by ATP; DNase activity in TRIS buffer with glutamate ([7]; 50 mM TRIS buffer, 100 mM potassium glutamate): very strongly inhibited by glutamate; DNase activity at micromolar concentrations ([6]; FIG. 32: 0.2 μg DNA over 2 hours (Co(III)-cyclen, 4-Co(III)), 0.6 μg DNA over 10 hours (23-Co(III))): inactive; effect of Co(III) complexes on plasmid DNA ([6]; absence of adjuvants, HEPES pH 7.4, 0.5 hours, micromolar concentrations): no effect whatsoever"
O.O=C(O)c1cn(C2CC2)c2cc(N3CCN(Cc4ccc(CCN5CCNCCNCCNCC5)cc4)CC3)c(F)cc2c1=O.[Cu+2] [5-Cu(II)],,6,6,6,3,significant cleavage enhancement even in relation to the activity of 1-Cu(II) and 4-Cu(II),180 ± 30,,,,,"oxidative cleavage activity in Tris buffer with DTT ([7]; Tris-HCl buffer (35 mM, pH 7.5), DTT (2 mM), complex 0.5 mM, 2.5 hours): retain significant oxidative cleavage activity; hydrolytic DNA cleavage in presence of Tris-buffer or spermidine ([7]; complex 0.5 mM, 2.5 hours): inhibit the hydrolytic DNA cleavage of plasmid DNA; effect of NaN3 on cleavage ([6]; ascorbic acid (0.32 mM), complex 0.01 mM, scavenger 10 mM, 2 hours): no inhibition whatsoever; effect of hydroxyl radical scavengers DMSO and t-BuOH on cleavage ([6]; no adjuvants, complex 0.5 mM, scavengers 10 mM, 5 hours): no significant inhibitory effect"
O=C(O)c1cn(C2CC2)c2cc(N3CCN(Cc4ccc(CCCN5CCNCCNCCNCC5)cc4)CC3)c(F)cc2c1=O [Compound 6],slightly higher activity,,,,,,70 ± 20,1.5,3,1.5,3,
O=C(O)c1cn(C2CC2)c2cc(N3CCN(Cc4ccc(CCN5CCNCCNCCNCC5)cc4)CC3)c(F)cc2c1=O [Compound 5],slightly higher activity,,,,,,150 ± 40,3,6,3,3,
O.O=C(O)c1cn(C2CC2)c2cc(N3CCN(Cc4ccc(CCN5CCNCCNCCNCC5)cc4)CC3)c(F)cc2c1=O.[Co+3].[OH-] [5-Co(III)],slightly higher activity,1.5,3,3,3,,,,,,,
